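Growth conditions: 96-well plates. Treatment: test compound, 48 hours, 5 concentrations. Analysis: linear interpolation between bracketing concentrations; unreached endpoints set to highest concentration. GI50 marks 50% less growth.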 The source made the active and inactive calls. Cut-off read from the data, not from the text of the source: active = GI50 up to about 1.1 µM and inactive = higher.

Some test systems named below: NCI-H226; SNB-75; NCI/ADR-RES; DMS-273; OVCAR-3; A498; RPMI-8226; SF-539; KM-20L2; TK-10; ACHN; SR; 786-0; M14; MDA-MB-435; PC-3; MDA-MB-231; MDA-N; Hs-578T; DU-145.
Holding throughout (experiment): NCI anticancer screen, dose series, 48 h

For `COc1ccc(C2COc3cc(O)c(O)cc3C2)cc1` (stereo not drawn), the GI50 in the assay with NCI-H226 is 39.6 µM (inactive); in the assay with SNB-75, 43.8 µM (inactive); with NCI/ADR-RES it was 11 µM (inactive); in the assay on DMS-273, 33.3 µM (inactive); in the assay on OVCAR-3 it was 11.4 µM (inactive); with A498, 9.84 µM (inactive). For the same compound, the GI50 in the assay on RPMI-8226 is 7.45 µM (inactive); with SF-539 it was 30.1 µM (inactive); in the assay on KM-20L2 it was 76.2 µM (inactive).
Take `COc1ccc(NC(=O)CC/C(CC(=O)c2ccccc2Cl)=N\Nc2nnc(C)n2N)cc1`: the GI50 with NCI-H226, in the assay on TK-10, in the assay on ACHN, with SR, in the assay with DMS-273 and with SF-539 was > 100 µM (inactive) each time. The GI50 in the assay with KM-20L2 and with 786-0 was > 100 µM (inactive) each time.
Regarding `Cc1ccc([N+](=O)[O-])cc1NC(=O)C(=O)C(C(=O)c1ccccc1F)C1OC(=O)c2ccccc21` (stereo not drawn), the GI50 in the assay with NCI-H226 was 16 µM (inactive); with TK-10, > 100 µM (inactive); with M14, 66.8 µM (inactive); in the assay with SNB-75 it was 38.5 µM (inactive); in the assay on ACHN it was 62.2 µM (inactive); in the assay on SR it was 30.3 µM (inactive). Further, the GI50 with DMS-273 was 36.3 µM (inactive); in the assay with A498 it was 98.4 µM (inactive); in the assay on RPMI-8226 it was 29.4 µM (inactive); with SF-539, 24.5 µM (inactive); in the assay on KM-20L2, 34.6 µM (inactive).
Turning to `CCOC(=O)Nc1ccc(S(=O)(=O)NCCCl)cc1.CCOC(=O)Nc1ccc(S(=O)(=O)NCCCl)cc1.O=C(O)c1ccc(/N=N/Cl)cc1O`, the GI50 in the assay on NCI-H226, with TK-10, with M14, with SNB-75, in the assay with ACHN and in the assay with SR was > 100 µM (inactive) each time. Moreover, the GI50 in the assay with DMS-273, in the assay on OVCAR-3, in the assay on A498, in the assay with SF-539 and in the assay on KM-20L2 was > 100 µM (inactive) in each case.
Turning to `COc1nc2[nH]ccc2c(=O)[nH]1`, the GI50 with NCI-H226 was 0.41 µM (active); with TK-10, > 100 µM (inactive); in the assay on M14, > 100 µM (inactive); in the assay on SNB-75, > 100 µM (inactive); in the assay with ACHN it was > 100 µM (inactive); in the assay on SR, > 100 µM (inactive). Also, the GI50 in the assay on A498, in the assay with RPMI-8226, with SF-539 and with KM-20L2 was > 100 µM (inactive) throughout.
In the case of `N#CC1(C#N)C2C=CC(C3CCC=C32)C1(C#N)C#N` (stereo not drawn), the GI50 is > 10 µM (inactive) in the assay with NCI-H226; > 5.7 µM (inactive) with TK-10; 5.79 µM (inactive) with M14; > 10 µM (inactive) in the assay on MDA-MB-435; > 10 µM (inactive) in the assay with PC-3; > 10 µM (inactive) in the assay with SNB-75. In addition, the GI50 was > 6.37 µM (inactive) in the assay with ACHN; 7.4 µM (inactive) with SR; > 10 µM (inactive) in the assay with NCI/ADR-RES; > 10 µM (inactive) in the assay on OVCAR-3; > 10 µM (inactive) in the assay with MDA-MB-231; > 10 µM (inactive) in the assay on A498. Also, the GI50 was 2.83 µM (inactive) in the assay with RPMI-8226; > 10 µM (inactive) in the assay with MDA-N; > 10 µM (inactive) in the assay on SF-539; > 10 µM (inactive) in the assay on Hs-578T; > 5.66 µM (inactive) with 786-0; > 10 µM (inactive) in the assay on DU-145.
Consider `CCN(CC)CCCC(C)Nc1cc(-c2ccccc2)nc2cc(OC)ccc12` (stereo not drawn), for which the GI50 in the assay on M14 is 1.84 µM (inactive); in the assay on SNB-75, 11.8 µM (inactive); in the assay with ACHN, 6.53 µM (inactive); with SR it was 2.71 µM (inactive); in the assay on OVCAR-3 it was 12.2 µM (inactive); in the assay with A498 it was 5.61 µM (inactive). In addition, the results for the GI50 in the assay on RPMI-8226, in the assay with SF-539 and with KM-20L2 were 2.07 µM (inactive), 3.05 µM (inactive) and 2.25 µM (inactive), respectively.
Consider `CN(C)c1n/c(=N/c2ccc(/N=c3\nc(N(C)C)ss3)cc2)ss1`, for which the GI50 was 56.5 µM (inactive) in the assay with NCI-H226; 24.2 µM (inactive) in the assay on TK-10; 12.9 µM (inactive) in the assay with M14; 13.5 µM (inactive) with SNB-75; 36.9 µM (inactive) in the assay on ACHN; 6.01 µM (inactive) with SR. Moreover, the GI50 with DMS-273 is 28.8 µM (inactive); with OVCAR-3 it was 28.2 µM (inactive); with A498 it was 33 µM (inactive); in the assay on RPMI-8226, 9.68 µM (inactive); with SF-539, 35.4 µM (inactive); with KM-20L2 it was 48.3 µM (inactive). Further, in the assay with 786-0, the GI50 is 63.7 µM (inactive).
In the case of `OCC1OC(n2ccc3cnccc32)CC1O` (stereo not drawn), the GI50 in the assay with NCI-H226, in the assay on TK-10, in the assay on M14, in the assay with SNB-75, with ACHN and with SR was > 100 µM (inactive) throughout. Also, the GI50 in the assay with DMS-273, in the assay on OVCAR-3, in the assay on A498, in the assay with RPMI-8226, with SF-539 and in the assay with 786-0 was > 100 µM (inactive) in each case.
As for `Cc1c2ccncc2cc2c1[nH]c1ccccc12`, the GI50 in the assay with NCI-H226 is 6.14 µM (inactive); with SNB-75 it was 5.26 µM (inactive); in the assay with NCI/ADR-RES it was 3.01 µM (inactive); in the assay on DMS-273 it was 1.19 µM (inactive); in the assay on OVCAR-3, 5.6 µM (inactive); in the assay with A498, 0.804 µM (active). For the same compound, the GI50 in the assay on RPMI-8226 is 3.07 µM (inactive); in the assay with SF-539 it was 2.48 µM (inactive); in the assay with KM-20L2, 3.37 µM (inactive).
Regarding `COC1OC(=O)[C@H]2O[N+]([O-])=C(C)[C@@H]12` (stereo partly drawn), the GI50 is > 73.5 µM (inactive) in the assay with NCI-H226; > 100 µM (inactive) with SNB-75; > 100 µM (inactive) with NCI/ADR-RES; > 100 µM (inactive) in the assay with OVCAR-3; > 100 µM (inactive) in the assay on A498; > 100 µM (inactive) in the assay on RPMI-8226. In addition, the GI50 with SF-539 and with KM-20L2 was > 100 µM (inactive) in each case.
Turning to `COc1ccc(NCC(=O)Nn2c(-c3ccccc3)nc3ccccc3c2=O)cc1`, the GI50 in the assay with NCI-H226 was > 100 µM (inactive); in the assay on TK-10 it was > 100 µM (inactive); in the assay with M14 it was 41.3 µM (inactive); with MDA-MB-435 it was 51.8 µM (inactive); in the assay on PC-3, 35.6 µM (inactive); with SNB-75, 44.4 µM (inactive). Besides, the GI50 in the assay on ACHN is 38.4 µM (inactive); in the assay on SR it was 35.8 µM (inactive); in the assay on NCI/ADR-RES, 25.2 µM (inactive); with OVCAR-3, 60.7 µM (inactive); in the assay with MDA-MB-231 it was 19 µM (inactive); in the assay on A498, 23.3 µM (inactive). Besides, the GI50 with RPMI-8226 is 24.2 µM (inactive); in the assay with MDA-N, 63.4 µM (inactive); with SF-539, 39.2 µM (inactive); in the assay on Hs-578T it was 28.1 µM (inactive); in the assay on 786-0, 25.6 µM (inactive); in the assay with DU-145 it was > 100 µM (inactive).
For `CC1(C)COC2C(N(Cc3ccccc3)Cc3ccccc3)C(=O)N21` (stereo not drawn), the GI50 in the assay on NCI-H226 is 47.2 µM (inactive); in the assay on TK-10 it was 37.2 µM (inactive); in the assay with M14, 23.1 µM (inactive); with SNB-75, 20 µM (inactive); with ACHN, 35.6 µM (inactive); in the assay with SR, 19.1 µM (inactive). For the same compound, the GI50 was 30.5 µM (inactive) in the assay on OVCAR-3; 48.8 µM (inactive) in the assay on A498; 20.9 µM (inactive) in the assay with RPMI-8226; 25.9 µM (inactive) with SF-539; 37.1 µM (inactive) in the assay with KM-20L2; 31 µM (inactive) in the assay with 786-0.

For the origin of these results see ChEMBL document CHEMBL1201862, “PubChem BioAssay data set” (2004).
